From paper PMC7955127, “Preclinical small molecule WEHI-7326 overcomes drug resistance and elicits response in patient-derived xenograft models of human treatment-refractory tumors” (Cell Death & Disease, 2021)

Columns and labels:
[1] = Measured physicochemical and solubility data
Source text: a Measured physicochemical and solubility data for WEHI-7326. […] Microsomal-predicted EH values are included.

[2] = tested on: COG-N-496x neuroblastoma PDX; experiment: High-risk neuroblastoma PDX COG-N-496x; assay type: in vivo, NSG mice; settings: COG-N-496x PDX; 20 mg/kg i.v. twice weekly
Method: All animal studies were performed in accordance with the guidelines approved by University of New South Wales Animal Care and Ethics Committee (ACEC 17/53B) and in accordance with the requirements of the Australian Code for the Care and Use of Animals for Scientific Purposes. PDX models COG-N-440x and COG-N-496x were obtained from the Childhood Cancer Repository, Texas Tech University Health Sciences Center in Lubbock, TX, USA. 6–8 week old female NSG mice were engrafted by subcutaneous injection with 1 × 10^6 freshly thawed PDX tumor cells into one flank in a mixture of 100 μl RPMI-1640 and 100 μl Matrigel. Mice were monitored for tumor development three times weekly and tumor size measured using digital Vernier calipers. Treatments commenced when tumors reached 50 mm^3, following randomization into treatment arms. […] Mice were treated with either vincristine (0.5 mg/kg, once weekly i.p. in sterile saline for up to 5 weeks), WEHI-7326 (20 mg/kg; twice weekly i.v. in sterile saline for up to 5 weeks) or vehicle (as for WEHI-7326). For the Th-MYCN transgenic mouse model, spontaneous tumor growth in mice homozygous for the MYCN transgene was assessed by abdominal palpation at least twice a week. Treatments commenced once a small palpable tumor (~5 mm) was detected, following randomization to treatment arms. Mice were euthanized upon detection of an abdominal tumor of ~1 cm in diameter. […]

[3] = tested on: CEM dEpoB30; experiment: Cell growth inhibition assay, CEM dEpoB30; assay type: cell-based; settings: Homo sapiens; CEM dEpoB30, leukemia (taxane resistant, β-tubulin mutation); 72 h, Alamar Blue; mean of 3 ± SEM; read-out: IC50 (inhibition of cellular proliferation)
Method: Cells were plated at a density of between 500 to 5000 cells per well for adherent cell lines depending on doubling time, and 15,000 cells per well for lymphoblastic leukemia cell lines, in a 96-well plate in 200 μl of growth media. Plates were incubated overnight at 37 °C before adding the inhibitors. Inhibitors were serially diluted from the stock solutions in complete medium and added to the cells. […] Cell viability was assessed by the AlamarBlue (Invitrogen) or CellTiterBlue/Glo (Promega) method according to manufacturer’s instructions. The curve fits and IC50 values were generated in PRISM (GraphPad, San Diego, CA).
Parental human lymphoblastic leukemia cells (CEM) and their drug resistant derivatives (dEpoB30 and dEpoB300) were cultured in the presence of increasing amounts of WEHI-7326, paclitaxel or epothilone B. Cell survival was determined as described in Experimental Procedures. Shown are mean of 3 experiments +/- SEM. Dose response curves were fitted in PRISM using non-linear regression (4 parameter logistic) to calculate IC50 values.

[4] = tested on: 34931 HGSOC PDX; experiment: HGSOC post-chemo PDX model 34931; assay type: in vivo, NSG mice; settings: 34931 post-taxane, cisplatin-refractory PDX; 20 mg/kg i.v. twice a week, 6 weeks
Method: (§1) Two to three mm ovarian tumor fragments were subcutaneously engrafted in the left flank of NSG mice and monitored by physical palpation for tumor growth and engraftment. Engrafted tumors were measured twice a week using digital Vernier calipers and maximum tumor diameter + perpendicular tumor length were digitally recorded into the Study Director software (v 3.0/4.0 StudyLog). Tumor volume was calculated automatically (tumor volume (mm^3) = 0.5236 x [larger diameter (mm) x smaller diameter (mm)^2]). Mice were randomized to treatment once their tumor volume reach 180–300 mm^3 and tumor measurements were performed twice a week up to 120 days or when the tumor volume reaches 700 mm^3.
(§2) Time to progressive disease (PD): Defined as the time (in days) from beginning of treatment to an increase in average tumor volume of >20% from the nadir (taken as the smallest average tumor volume recorded since treatment started or 200 mm^3 if nadir was <200 mm^3 as lesions smaller than this are difficult to measure with accuracy). Median time to harvest (TTH): Defined as the time (in days) from the beginning of treatment to day of harvest at 700 mm^3 and the median TTH was calculated and plotted using Kaplan-Meier curves. Based on ref. [27]. […]

[5] = tested on: 134056 HGSOC PDX; experiment: HGSOC PDX model 134056; assay type: in vivo, NSG mice; settings: 134056 platinum-sensitive PDX; 20 mg/kg i.v. biweekly, 6 weeks
Method: as §1, §2

[6] = tested on: MDA-MB-231 LNA DRE (docetaxel resistant breast cancer) xenograft; experiment: Orthotopic MDA-MB-231 LNA-DRE xenograft; assay type: in vivo, Balb/c nude mice; settings: docetaxel 10 mg/kg weekly i.v., WEHI-7326 30 mg/kg biweekly i.v.
Method: LoVo (4 × 10^6), PC3 (3 × 10^6) or MDA-MB-231 LNA DRE (10^6) cells were collected by trypsination and injected with 50 μl 1:1 PBS:Matrigel (v/v) subcutaneously on the right flank of 18 female (LoVo), 40 male (PC3) or into 4th mammary fat pad of 40 female (MDA231) Balb/c nude mice. Tumor growth was monitored and average tumor size at commencement of dosing was 100 mm^3. Mice were randomized into 3 arms of each 5 (LoVo), 10 (PC3) or 12 (MDA23) mice respectively and treatment with vehicle (saline), WEHI-7326 (biweekly) or docetaxel (weekly) was administered via tail vein injection. Tumor volumes were measured at least twice weekly with calipers and the experiments were terminated when tumors in the control group started exceeding 1500 mm^3. For LoVo, both vehicle and 25 mg/kg WEHI-7326 groups were harvested 24 h, but 20 mg/kg WEHI-7326 group harvested 1 h post final dose. For PC3, docetaxel group was not harvested in an attempt to grow out resistant tumors.

For `COc1ccc(CNc2nc(NCc3ccc(CN)cc3)nc(NN3CC(=O)NC3=O)n2)cc1` [WEHI-7326], the Lipophilicity [1] was “very low”, the “Solubility in common dosing vehicles” value ([1]; 5% [w/v] glucose, 0.9% [w/v] saline and isotonic acetate buffer pH 5) was “soluble” and the “Stability in dosing vehicles” value ([1]; storage in common dosing vehicles) was “negligible degradation”. The Median survival [2] was 25 days, the IC50 [3] was 1.67 ± 0.04 nM and the Tumor response [4] was “ineffective”. For the same molecule, the “Median time to harvest (TTH)” value [5] was 78 days, the “Time to progressive disease (PD)” value [5] was 56 days and the “Tumor growth inhibition (TGI)” value [6] was 105%.
